The values below come from patent US20180344726A1, “ABUSE RESISTANT TRANSDERMAL DELIVERY DEVICES AND COMPOSITIONS COMPRISING AN OPIOID AGONIST AND A NON-TRANSDERMALLY DELIVERED N-OXIDE DERIVATIVE OF AN OPIOID ANTAGONIST FOR THE TREATMENT OF PAIN” (priority 2015, published 2018).

What all share (type): physicochemical
The nature of series [1]: pKa analysis by pH-metric triple titration. The note with it: aqueous solution, […] C., […] KCl, read-out: pKa. Here is the method: (§1) pKa analysis was performed using a pH-metric method. […] No precipitation or degradation was observed and two pKas were determined from the potentiometric data. Log P was determined using the potentiometric (pH-metric method). The sample was titrated in various ratios of octanol/water in two titrations covering the pH range 2.0-12.0 at concentrations of 1.9-1.1 mM. The shift of the aqueous pKas in the presence of octanol was used to determine the log P of the neutral species.

Series [2] can be described thus: Log P by potentiometric (pH-metric) octanol/water titration. To be noted: Neutral species, 25.0 ° C., 0.15M KCl, read-out: LogP. Here is the method:
as §1

A short description of series [3]: Concentration of saturated antagonist solutions in phosphate buffer pH 5.0. The note with it: phosphate buffer pH 5.0, stirred overnight, filtered. How it is done:
The determination of in vitro skin permeation was performed with saturated solutions of the respective antagonist species. Therefore an excess of the antagonist was weighed in phosphate buffer of pH 5.0 and stirred overnight. pH was monitored and, if necessary, adjusted. The cells were incubated at 32° C. Solutions were filtrated through a syringe filter (1 μm PTFE) prior to application into the diffusion cells. Concentrations of the solutions were determined.
The determination of naloxone and naloxone N-oxide in the acceptor medium of the in vitro skin permeations samples (receptor phase) was done by HPLC with UV-detection.

Like-named read-outs stand apart in the source and are kept apart here.

On to `C=CCN1CC[C@]23c4c5ccc(O)c4O[C@H]2C(=O)CC[C@@]3(O)[C@H]1C5` [Naloxone, (4R,4aS,7aR,12bS)-4a,9-dihydroxy-3-prop-2-enyl-2,4,5,6,7a,13-hexahydro-1H-4,12-methanobenzofuro[3,2-e]isoquinoline-7-one, reference compound], for which the pKa came out at 9.15 ± 0.01 in series [1] (Type Acid) and 8.07 ± 0.01 in series [1] (Type Base). The logP in series [2] is 1.97. The “Concentration saturated solution c” value in series [3] turned out to be 4460 µg/mL.

As a reminder, the pKa is the negative logarithm of the acid dissociation constant. The term logP denotes a log measure of how a compound divides between an organic and an aqueous phase.
